This passage reports IC50 results from US8846736B2, “Pyrrole inhibitors of S-nitrosoglutathione reductase as therapeutic agents” (N30 Pharmaceuticals, Inc., priority 2008, dated 2014).

pIC50: −log10 of the molar value. Where only a bound is given, the exact number is not on record here.

This test deals with T1, GSNOR (GSNO Reductase) (Homo sapiens, UniProt P11766).
T1 construct: made in house; host or cells: E. coli (arabinose-induced)
T1 sequence (P11766 whole entry): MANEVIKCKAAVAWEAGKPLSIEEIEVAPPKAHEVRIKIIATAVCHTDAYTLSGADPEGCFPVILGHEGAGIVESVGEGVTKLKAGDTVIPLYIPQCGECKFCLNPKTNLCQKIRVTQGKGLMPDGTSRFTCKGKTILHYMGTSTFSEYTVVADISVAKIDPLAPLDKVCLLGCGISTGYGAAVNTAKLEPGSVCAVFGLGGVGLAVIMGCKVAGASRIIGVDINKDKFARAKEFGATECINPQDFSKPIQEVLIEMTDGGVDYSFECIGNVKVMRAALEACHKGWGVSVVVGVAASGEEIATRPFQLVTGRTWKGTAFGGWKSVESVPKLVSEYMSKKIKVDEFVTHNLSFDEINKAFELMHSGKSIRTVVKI
Put plainly: GSNOR assay (in vitro inhibition of GSNOR activity, change in 340 nm absorbance). As to conditions: GSNOR inhibitor activity by the assay of Example 2; 0.240 mM GSNO, 0.300 mM NADH, pH 7.4, 25° C.; values given as 'about' bounds. Format: biochemical. The protocol: Various compounds were tested in vitro for their ability to inhibit GSNOR activity. Representative compounds and their corresponding GSNOR activity are described in a paragraph before Table 1 above. GSNOR expression and purification is described in Biochemistry 2000, 39, 10720-10729.
Pre-cultures were grown from stabs of a GSNOR glycerol stock in 2XYT media containing 100 ug/ml ampicillin after an overnight incubation at 37° C. Cells were then added to fresh 2XYT (4 L) containing ampicillin and grown to an OD (A600) of 0.6-0.9 at 37° C. before induction. GSNOR expression was induced with 0.1% arabinose in an overnight incubation at 20° C.
E. coli cell paste was lysed by nitrogen cavitation and the clarified lysate purified by Ni affinity chromatography on an AKTA FPLC (Amersham Pharmacia). The column was eluted in 20 mM Tris pH 8.0/250 mM NaCl with a 0-500 mM imidazole gradient. […] GSNOR was recovered in the flowthrough fraction and for crystallography is further purified by Q-Sepharose and Heparin flowthrough chromatography in 20 mM Tris pH 8.0, 1 mM DTT, 10 uM ZnSO4.
GSNO and Enzyme/NADH Solutions are made up fresh each day. The Solutions are filtered and allowed to warm to room temperature. GSNO Solution: 100 mM NaPO4 (pH 7.4), 0.480 mM GSNO. 396 μL of GSNO Solution is added to a cuvette followed by 8 μL of test compound in DMSO (or DMSO only for full reaction control) and mixed with the pipette tip. Compounds to be tested are made up at a stock concentration of 10 mM in 100% DMSO. 2 fold serial dilutions are done in 100% DMSO. 8 μL of each dilution are added to an assay so that the final concentration of DMSO in the assay is 1%. The concentrations of compounds tested range from 100 to 0.003 μM. Enzyme/NADH Solution: 100 mM NaPO4 (pH 7.4), 0.600 mM NADH, 1.0 μg/mL GSNO Reductase. 396 μL of the Enzyme/NADH Solution is added to the cuvette to start the reaction. The cuvette is placed in the Cary 3E UV/Visible Spectrophotometer and the change in 340 nm absorbance/min at 25° C. is recorded for 3 minutes. The assays are done in triplicate for each compound concentration. IC50's for each compound are calculated using the standard curve analysis in the Enzyme Kinetics Module of SigmaPlot.
Final assay conditions: 100 mM NaPO4, pH 7.4, 0.240 mM GSNO, 0.300 mM NADH, 0.5 μg/mL GSNO Reductase and 1% DMSO. Final volume: 800 μL/cuvette.
For `Cc1cc(C(N)=O)ccc1-n1c(Cc2nnn[nH]2)ccc1-c1ccc(-n2ccnc2C)cc1` [Compound 21, 4-(2-((1H-tetrazol-5-yl)methyl)-5-(4-(2-methyl-1H-imidazol-1-yl)phenyl)-1H-pyrrol-1-yl)-3-methylbenzamide], the pIC50 (in general, −log10 of the IC50, conventionally taken in molar units) was over 6.00. `Oc1ccc(-n2c(Cc3nnn[nH]3)ccc2-c2ccc(Br)cc2)cc1` [Compound 6, 4-(2-((1H-tetrazol-5-yl)methyl)-5-(4-bromophenyl)-1H-pyrrol-1-yl)phenol] gave a pIC50 of over 5.30. The compound `Cc1cc(C(N)=O)ccc1-n1c(CCc2nnn[nH]2)ccc1-c1ccc(Br)cc1` [Compound 11, 4-(2-(2-(1H-tetrazol-5-yl)ethyl)-5-(4-bromophenyl)-1H-pyrrol-1-yl)-3-methylbenzamide] showed a pIC50 of over 6.00.

As for `Oc1ccc(-n2c(CCc3nnn[nH]3)ccc2-c2ccc(Br)cc2)cc1` [Compound 5, 4-(2-(2-(1H-tetrazol-5-yl)ethyl)-5-(4-bromophenyl)-1H-pyrrol-1-yl)phenol], the pIC50 is over 6.00. The result for `Cc1cc(NS(C)(=O)=O)ccc1-n1c(Cc2nn[nH]n2)ccc1-c1ccc(-n2ccnc2C)s1` [Compound 22, N-(4-(2-((1H-tetrazol-5-yl)methyl)-5-(5-(2-methyl-1H-imidazol-1-yl)-thiophen-2-yl)-1H-pyrrol-1-yl)-3-methylphenyl)-methanesulfonamide] reads over 6.00; that for `Cc1nccn1-c1ccc(-c2ccc(Cc3nnn[nH]3)n2-c2ccc(O)cc2)cc1` [Compound 18, 4-(2-((1H-tetrazol-5-yl)methyl)-5-(4-(2-methyl-1H-imidazol-1-yl)phenyl)-1H-pyrrol-1-yl)phenol], over 6.00; that for `Cc1nccn1-c1ccc(-c2ccc(Cc3nnn[nH]3)n2-c2ccc(O)cc2)s1` [Compound 20, 4-(2-((1H-tetrazol-5-yl)methyl)-5-(5-(2-methyl-1H-imidazol-1-yl)thiophen-2-yl)-1H-pyrrol-1-yl)phenol], over 6.00. With `COc1ccc(-c2ccn(CCc3nnn[nH]3)c2-c2ccc(C(N)=O)cc2C)cc1` [Compound 23, 4-(1-(2-(1H-tetrazol-5-yl)ethyl)-3-(4-methoxy-phenyl)-1H-pyrrol-2-yl)-3-methylbenzamide] the figure was over 5.30; with `Cc1cc(C(N)=O)ccc1-n1c(Cc2nnn[nH]2)ccc1-c1ccc(-n2ccnc2C)s1` [Compound 19, 4-(2-((1H-tetrazol-5-yl)methyl)-5-(5-(2-methyl-1H-imidazol-1-yl)thiophen-2-yl)-1H-pyrrol-1-yl)-3-methylbenzamide], over 6.00. `NC(=O)c1ccc(-n2c(CCc3nnn[nH]3)ccc2-c2ccccc2)cc1` [Compound 1, 4-(2-(2-(1H-tetrazol-5-yl)ethyl)-5-phenyl-1H-pyrrol-1-yl)benzamide] had a pIC50 of over 6.00. On to `COc1ccc(-c2ccc(Cc3nnn[nH]3)n2-c2ccc(C(N)=O)cc2C)cc1` [Compound 10, 4-(2-((1H-tetrazol-5-yl)methyl)-5-(4-methoxyphenyl)-1H-pyrrol-1-yl)-3-methylbenzamide], for which the pIC50 is over 5.30. `Cc1cc(C(N)=O)ccc1-n1c(Cc2nnn[nH]2)ccc1-c1ccc(Br)cc1` [Compound 9, 4-(2-((1H-tetrazol-5-yl)methyl)-5-(4-bromophenyl)-1H-pyrrol-1-yl)-3-methylbenzamide] showed a pIC50 of over 6.00.

`COc1cc(Cl)ccc1-c1ccc(CCc2nnn[nH]2)n1-c1ccc(O)cc1` [Compound 14, 4-(2-(2-(1H-tetrazol-5-yl)ethyl)-5-(4-chloro-2-methoxyphenyl)-1H-pyrrol-1-yl)phenol] showed a pIC50 of over 6.00. The result for `COc1ccc(-c2ccc(CCc3nnn[nH]3)n2-c2ccc(O)cc2)cc1` [Compound 13, 4-(2-(2-(1H-tetrazol-5-yl)ethyl)-5-(4-methoxyphenyl)-1H-pyrrol-1-yl)phenol] reads over 5.30; that for `Oc1ccc(-n2c(Cc3nnn[nH]3)ccc2-c2ccc(-n3ccnc3)cc2)cc1` [Compound 12, 4-(2-(4-(1H-imidazol-1-yl)phenyl)-5-((1H-tetrazol-5-yl)methyl)-1H-pyrrol-1-yl)phenol], over 6.00. The result for `COc1cc(Cl)ccc1-c1ccc(CCc2nnn[nH]2)n1-c1ccc(C(N)=O)cc1C` [Compound 16, 4-(2-(2-(1H-tetrazol-5-yl)ethyl)-5-(4-chloro-2-methoxy-phenyl)-1H-pyrrol-1-yl)-3-methylbenzamide] reads over 6.00; that for `COc1cc(Br)ccc1-c1ccc(CCc2nnn[nH]2)n1-c1ccc(C(N)=O)cc1C` [Compound 17, 4-(2-(2-(1H-tetrazol-5-yl)ethyl)-5-(4-bromo-2-methoxy-phenyl)-1H-pyrrol-1-yl)-3-methylbenzamide], over 6.00; that for `Oc1ccc(-n2c(CCc3nnn[nH]3)ccc2-c2ccc(-n3ccnc3)cc2)cc1` [Compound 8, 4-(2-(4-(1H-imidazol-1-yl)phenyl)-5-(2-(1H-tetrazol-5-yl)ethyl)-1H-pyrrol-1-yl)phenol], over 6.00. The result for `COc1cc(Br)ccc1-c1ccc(CCc2nnn[nH]2)n1-c1ccc(O)cc1` [Compound 15, 4-(2-(2-(1H-tetrazol-5-yl)ethyl)-5-(4-bromo-2-methoxyphenyl)-1H-pyrrol-1-yl)phenol] reads over 6.00; that for `COc1ccc(-c2ccc(CCc3nnn[nH]3)n2-c2ccc(C(N)=O)cc2C)cc1` [Compound 4, 4-(2-(2-(1H-tetrazol-5-yl)ethyl)-5-(4-methoxyphenyl)-1H-pyrrol-1-yl)-3-methylbenzamide], over 5.30.
